Experimental findings from US20130197073A1, “HYPOCHOLESTEROLEMIC, ANTI-INFLAMMATORY AND ANTIEPILEPTIC NEUROPROTECTIVE COMPOUND” (NEURON BIOPHARMA, S.A., priority 2010, published 2013) are described below.

One data set deals with seladin-1/DHCR24 gene. Description: Induction of seladin-1/DHCR24 gene expression, quantitative RT-PCR. Format: cell-based, human. The note with it: 4 μM, 24 hours, GAPDH-normalized; increase at all tested concentrations (1, 4, 10, 40 μM). On the procedure:
The assay was performed on human neuroblastoma SK-N-MC cells in culture from the American Type Culture Collection (ATCC), in all cases strict rules of sterility were followed and the manipulation was performed in class II biological safety cabinets following European standard EN 12469. The cells were maintained in the following culture medium: Minimum Essential Medium Eagle (MEM) supplemented with 1 mM sodium pyruvate, 2 mM L-glutamine, 0.1 mM non-essential amino acids, 0.05 mg/ml gentamicin and 10% fetal bovine serum.
Real-time quantitative RT-PCR was used to analyze the expression of the seladin-1/DHCR24 gene. The SK-N-MC cells were treated for 24 hours in the absence (control) or presence of NST0060 at 1, 4, 10 or 40 μM. The total RNA was extracted by means of the High Pure RNA Isolation kit (Roche) and the RNA amount and quality were analyzed by means of spectrophotometry in the Infinite 200 NanoQuant system (Tecan). The RT-PCR was performed by means of two steps, first, the mRNA was transformed to cDNA using the RNA to cDNA kit (Applied Biosystem) and the gene expression was subsequently analyzed by means of TaqMan probes using the validated probes Hs00207388_m1 for seladin-1/DHCR24 and Hs99999905_m1 for GAPDH (used to normalize the results), both of which are human-specific, in the 7500 Fast Real-Time PCR System equipment (Applied Biosystem). […]

The next data set concerns male C57BL6 mice. Description: LPS model of systemic shock in mice, survival and symptomatology score. Conditions: LPS 8 mg/kg i.p. The data set is classed as in vivo. How it is done: To that end an additional assay was carried out in which all the animals included were 12-week old male C57BL6 mice. The experiments were carried out strictly complying with the standard entitled Guidance on the Operation of Animals (Scientific Procedures, Act. 1986). The animals were subjected to their respective quarantine period and were treated with maximum precaution to minimize possible contaminations during treatments and handling.
The mice were split up into three experimental groups: control group (n=8); control+LPS group (n=16); NST0060+LPS group (n=16). The mice were i.p. administered two doses of 50 mg/kg of NST0060 (in its lactone form) spaced out 12 hours from one another. 0.5% methyl cellulose in physiological saline, which was administered to the mice in the control groups with the same administration regimen, was used as a vehicle. Peripheral systemic inflammation was induced one hour after the last treatment by means of a single i.p. injection of LPS at 8 mg/kg. Half the mice in which systemic shock was induced (8 animals from the control+LPS group and 8 animals from the NST0060+LPS group) were sacrificed 2 hours after the inoculation of the LPS. Blood was taken and plasma was obtained, and both were frozen. […] The concentration of the inflammatory cytokines TNFα and IL-1β was evaluated in the plasma obtained by means of ELISA.

Data set [1] relates to promoter of a gene that could be modulated by oxidative stress bound to the firefly luciferase reporter gene. Kind of data set: Oxidative stress of the brain induced by kainate in luciferase reporter mice, in vivo bioluminescence. The note with it: 50 mg/kg i.p. at 24 and 0.5 hours before KA 25 mg/kg and daily; 1 to 4 dpi. How it is done: All the animals included during the experimental process were 12-week old males from the FVB/N strain who were carriers of a gene construct with the promoter of a gene that could be modulated by oxidative stress bound to the firefly luciferase reporter gene. The experiments were carried out strictly complying with the standard entitled Guidance on the Operation of Animals (Scientific Procedures, Act. 1986). The animals were subjected to their respective quarantine period and were treated with maximum precaution to minimize possible contaminations during inoculations and handling.
The animals were intraperitoneally inoculated with 25 mg/kg of kainate (KA) dissolved in PBS. Seven mice were pretreated at 24 and 0.5 hours before inoculation with KA and subsequently on a daily basis up to 7 days post-inoculation by means of intraperitoneal injection with 0.25% methyl cellulose in PBS as a vehicle (vehicle+KA administration regimen), and another 7 mice were pretreated at 24 and 0.5 hours before inoculation with KA and subsequently on a daily basis up to 7 days post-inoculation by means of intraperitoneal injection with compound NST0060 at a dose of 50 mg/kg (NST0060+KA administration regimen). […] Oxidative stress in the brain was monitored by means of the in vivo bioluminescence technique with the IVIS Lumina system (Caliper LS). […]

Data set [2] has as its system zebrafish (Danio rerio, AB strain) embryos. The note with it: in vivo.
Experimental: The study of this parameter (cardiotoxicity) not only determines the heart rate of the animals but also it allows determining heart beat alterations (tachycardia, bradycardia, etc.) or heart development anomalies (pericarditis, atrophy, hypertrophy, etc.).
The determination of the heart rate of the zebrafish embryos or larvae is performed visually. The heart beat (with the help of a manual counter) is counted for a period of 15 seconds by means of a magnifying glass (magnifications of 4-40×). The heartbeat of 12 of the 30 animals used per treatment in total is counted. The number of beats obtained is multiplied by 4 to obtain the number of heart beats per minute of the animal.
For another data set, the system named is FVB/NHan mice. Description: Kainate (KA) model of epilepsy in mice, convulsions, status epilepticus, latency, Racine scale. The data set is classed as in vivo. How it is done:
All the animals included during the experimental process were 12-week old males from the FVB/NHan strain. The experiments were carried out strictly complying with the standard entitled Guidance on the Operation of Animals (Scientific Procedures, Act. 1986). The animals were subjected to their respective quarantine period and were treated with maximum precaution to minimize possible contaminations during inoculations and handling.
The animals were intraperitoneally inoculated with 25 mg/kg of kainate (KA) dissolved in PBS. Fourteen animals were pretreated at 24 and 0.5 hours before inoculation with KA by means of intraperitoneal injection with 0.25% methyl cellulose in PBS (vehicle+KA administration regimen), and 14 were pretreated at 24 and 0.5 hours before inoculation with KA by means of intraperitoneal injection with compound NST0060 at a dose of 50 mg/kg (NST0060+KA administration regimen). After inoculation, the animals were individually housed in trays to monitor them. The maximum level of epilepsy of the animals was recorded during the observation according to the Racine scale every ten minutes and for at least 120 minutes post-inoculation (m.p.i.).

Where two headings read alike, the source gives them in different places.

As to `CCCC(CCC)C(=O)O[C@H]1C[C@@H](C)C=C2C=C[C@H](C)[C@H](CC[C@@H]3C[C@@H](O)CC(=O)O3)[C@H]21` [NST0060, 2-propylpentanoic acid (1S,3R,7S,8S,8aR)-1,2,3,7,8,8a-hexahydro-3,7-dimethyl-8-[2-[(2R,4R)-tetrahydro-4-hydroxy-6-oxo-2H-pyran-2-yl]ethyl]-1-naphthalenyl ester], in the data set on seladin-1/DHCR24 gene, the “increase of seladin-1/DHCR24 gene expression with respect to the control” value is reported as 2.5 fold. In the data set on male C57BL6 mice (two i.p. doses of 50 mg/kg (lactone form), observed 15 days), the “survival rate / mortality induced by LPS” value is given as “mortality induced by LPS is prevented in a statistically significant manner”. For the same molecule, the “score associated with the symptomatology (0 to 3)” value with male C57BL6 mice (two i.p. doses of 50 mg/kg, statistically significant at 24 hours) is “lower severity of the systemic shock process”. Also, the “expression of gene associated with oxidative stress in the brain (photon emission)” value in data set [1] was “did not show a significant increase in the expression of this gene associated with oxidative stress”. The “heart rate with respect to the controls” value in data set [2] (AB, zebrafish (Danio rerio), 3 mg/kg, 72 h) is on record as “not at the dose of 3 mg/Kg”; in data set [2] (10 mg/kg) it was “decrease of the heart rate is detected”. For the same molecule, the “Status epilepticus, percentage of animals with tonic-clonic seizures lasting at least 30 minutes” value with FVB/NHan mice (50 mg/kg i.p. at 24 and 0.5 hours before KA 25 mg/kg i.p., vehicle+KA 79%) is reported as 29%. For the same molecule, the “Convulsions, percentage of animals with tonic-clonic seizures” value in the data set on FVB/NHan mice (50 mg/kg i.p. at 24 and 0.5 hours before KA 25 mg/kg i.p., vehicle+KA 93%) is on record as 36%. Besides, the “latency (time when the first convulsions occurred)” value in the data set with FVB/NHan mice (50 mg/kg i.p. at 24 and 0.5 hours before KA 25 mg/kg, mean±SEM, vehicle+KA 45.7±7.5) amounted to 100.1 ± 7.3 min. Besides, in the data set with FVB/NHan mice (50 mg/kg i.p., two hours after KA, vehicle+KA above 4), the “mean level of epilepsy on the Racine scale” value was ≤ 3.
